Results: patent US6284769A, “Nonpeptide kappa opioid receptor antagonists” (The Board of Trustees of the University of Illinois, priority 1999, dated 2001)
Where two headings read alike, the source gives them in different places.

Experiments:
μ opioid receptor [1] = target: T1, μ opioid receptor (Homo sapiens, UniProt P35372); assay: Receptor binding, [3H]DAMGO, membranes of transfected CHO cells
T1 construct: expressed in transfected cells; host or cells: Chinese hamster ovary (CHO) cells, membranes
T1 sequence (P35372 whole entry): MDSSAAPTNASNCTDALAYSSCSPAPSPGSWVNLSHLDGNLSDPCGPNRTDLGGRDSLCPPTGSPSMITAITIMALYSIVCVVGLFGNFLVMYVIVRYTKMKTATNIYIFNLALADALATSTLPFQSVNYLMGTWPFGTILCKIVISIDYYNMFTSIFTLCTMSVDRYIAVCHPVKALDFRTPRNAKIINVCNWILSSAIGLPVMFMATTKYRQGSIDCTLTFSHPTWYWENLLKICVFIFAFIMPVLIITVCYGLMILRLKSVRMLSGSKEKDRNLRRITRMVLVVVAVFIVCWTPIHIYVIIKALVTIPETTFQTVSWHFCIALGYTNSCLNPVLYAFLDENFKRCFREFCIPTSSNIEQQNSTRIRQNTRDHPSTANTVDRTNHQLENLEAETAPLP
Description: (§1) Opioid receptor activity studies were carried out by the method of the Opiate Treatment Discovery Program of the National Institutes of Health. Receptor binding studies were conducted on Chinese hamster ovary (CHO) cells which had been transfected with human DNA encoding for the μ, δ, and κ opiate receptors, respectively.
(§2) The cell line expressing the μ opioid receptor is maintained in Ham's F-12 medium supplemented with 10% fetal bovine serum and 400 μg/ml GENETICIN (G418 sulfate). The cell line expressing the δ opioid receptor is maintained in Ham's F-12 medium supplemented with 10% fetal bovine serum and 500 μg/ml hygromycin B. The cell line expressing the κ opioid receptor is maintained in Dulbecco's minimal essential medium (DMEM) supplemented with 10% fetal bovine serum, 400 μg/ml GENETICIN (G418 sulfate), and 0.1% penicillin/streptomycin. All cell lines are grown to full confluency, then harvested for membrane preparation. The membrane used for functional assays is prepared in buffer A (20 mM HEPES, 10 mM MgCl2, and 100 mM NaCl at pH 7.4) and the membrane for binding assays is prepared in 50 mM Tris buffer, pH 7.7. Cells are harvested by scraping the plates with a rubber policeman and then centrifuged at 500 times gravity for 10 minutes. The cell pellet is suspended in buffer A or Tris buffer, homogenized in a Polytron Homogenizer, and centrifuged at 20,000 times gravity for 20 minutes. The cell pellet is washed in buffer A or Tris, centrifuged at 20,000 times gravity for another 20 minutes, and, finally, suspended in a small amount of buffer to determine protein content. Membrane is aliquoted in small vials at a concentration of 6 mg/ml per vial, stored at -70° C., and used as needed.
Binding assays were conducted using [^3 H]DAMGO, [^3 H]Cl-DPDPE and [^3 H]U69,593 as labelling ligands specific for μ, δ and κ opioid receptors, respectively. DAMGO is Tyr-D-Ala-Gly-NMePhe-[…]. The structural formulae for U69,593 and Cl-DPDPE are [drawing 10] […]
(§3) Samples were filtered over glass fiber filters and counted as described for the binding assays.

δ opioid receptor [2] = target: T2, δ opioid receptor (Homo sapiens, UniProt P41143); assay: Receptor binding, [3H]Cl-DPDPE, membranes of transfected CHO cells; settings: CHO cell membranes, radioligand [3H]Cl-DPDPE, 1 hour at 25° C., SEM in brackets
T2 construct: expressed in transfected cells; host or cells: Chinese hamster ovary (CHO) cells, membranes
T2 sequence (P41143 whole entry): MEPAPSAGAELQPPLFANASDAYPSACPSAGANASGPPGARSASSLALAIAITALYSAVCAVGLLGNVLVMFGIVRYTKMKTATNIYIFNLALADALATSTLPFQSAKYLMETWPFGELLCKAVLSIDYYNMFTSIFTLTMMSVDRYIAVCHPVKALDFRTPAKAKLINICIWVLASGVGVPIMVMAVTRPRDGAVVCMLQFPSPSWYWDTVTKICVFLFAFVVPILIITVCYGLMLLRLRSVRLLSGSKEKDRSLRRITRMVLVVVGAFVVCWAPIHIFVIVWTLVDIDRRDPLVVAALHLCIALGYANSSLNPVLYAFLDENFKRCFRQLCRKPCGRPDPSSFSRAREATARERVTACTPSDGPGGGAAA
Description: as §1
as §2, with “The cell pellet is suspended in buffer A or Tris buffer, homogenized in a Polytron Homogenizer, and centrifuged at 20,000 times gravity for 20 minutes. The cell pellet is washed in buffer A or Tris, centrifuged at 20,000 times gravity for another 20 minutes, and, finally, suspended in a small amount of buffer to determine protein content. Membrane is aliquoted in small vials at a concentration of 6 mg/ml per vial, stored at -70° C., and used as needed.” left out
as §3

κ opioid receptor [3] = target: T3, κ opioid receptor (Homo sapiens, UniProt P41145); assay: Receptor binding, [3H]U69,593, membranes of transfected CHO cells; settings: CHO cell membranes, radioligand [3H]U69,593, 1 hour at 25° C., SEM in brackets
T3 construct: expressed in transfected cells; host or cells: Chinese hamster ovary (CHO) cells, membranes
T3 sequence (P41145 whole entry): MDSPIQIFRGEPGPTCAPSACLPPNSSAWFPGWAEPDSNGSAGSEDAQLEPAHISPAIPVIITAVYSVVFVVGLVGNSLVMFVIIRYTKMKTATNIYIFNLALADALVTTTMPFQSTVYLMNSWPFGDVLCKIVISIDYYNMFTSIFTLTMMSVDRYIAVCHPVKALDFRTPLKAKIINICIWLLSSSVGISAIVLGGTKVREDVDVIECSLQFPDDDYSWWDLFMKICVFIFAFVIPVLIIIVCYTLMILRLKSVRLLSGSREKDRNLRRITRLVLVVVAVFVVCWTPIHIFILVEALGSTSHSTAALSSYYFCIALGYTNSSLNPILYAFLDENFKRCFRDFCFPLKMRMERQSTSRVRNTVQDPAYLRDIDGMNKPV
Description: as §1
The cell line expressing the μ opioid receptor is maintained in Ham's F-12 medium supplemented with 10% fetal bovine serum and 400 μg/ml GENETICIN (G418 sulfate). […]
Cell membranes were incubated with the appropriate radioligand and unlabeled compounds of Example 1 in a total volume of 200 μl in 96-well plates, usually for 1 hour at 25° C. […] Filters were dried overnight before radioactivity levels were determined. Nonspecific binding was determined by using 1.0 μM of the unlabeled counterpart of each radioligand.
(§4) Analysis of the data for IC50 values and Hill coefficients was performed using the program PRISM. Opioid receptor binding constants, Ki, were calculated using the Cheng-Prusoff transformation, Ki=IC50 /(1+L/Kd), where L is radioligand concentration and Kd is the binding affinity of the radioligand, as determined previously by saturation analysis. […] Samples were filtered over glass fiber filters and counted as described for the binding assays. […]

μ opioid receptor [4] = target: T1, μ opioid receptor; assay: [35S]GTPγS agonist/antagonist assay, μ-CHO membrane; assay type: biochemical
Description: as §1
as §2, with “The cell pellet is suspended in buffer A or Tris buffer, homogenized in a Polytron Homogenizer, and centrifuged at 20,000 times gravity for 20 minutes. The cell pellet is washed in buffer A or Tris, centrifuged at 20,000 times gravity for another 20 minutes, and, finally, suspended in a small amount of buffer to determine protein content. Membrane is aliquoted in small vials at a concentration of 6 mg/ml per vial, stored at -70° C., and used as needed.” left out
as §4
(§5) Agonist activity at μ, δ and κ receptors is reported as % stimulation relative to the respective agonists DAMGO, Cl-DPDPE, and U69,593. […] A full Schild analysis was conducted, utilizing a full agonist dose response curve in the presence of at least three concentrations of the antagonist. pA2 values and Schild slopes were determined using a statistical program designed for these experiments.

δ opioid receptor [5] = target: T2, δ opioid receptor; assay: [35S]GTPγS agonist/antagonist assay, δ-CHO membrane; assay type: biochemical
Description: as §1, §2, §3

κ opioid receptor [6] = target: T3, κ opioid receptor; assay: [35S]GTPγS agonist/antagonist assay with Schild analysis, κ-CHO membrane; assay type: biochemical
Description: as §1, §2
as §4, with “analysis. See Y. C. Cheng et al., Biochem. Pharmacol., 22, p. 3099-3102 (1973).” for “analysis.”
as §5

δ receptor of the T-cell = assay: Stimulatory activity at the δ receptor of the T-cell of the immune system; assay type: cell-based; settings: result in words
[7] = In vivo analgesic testing on rats; settings: result in words
[8] = [35S]GTPγS, 60 min at 25° C., SEM in brackets

With CN1CC[C@]23c4c5ccc(O)c4O[C@H]2c2n[nH]cc2C[C@@]3(O)[C@H]1C5 [Example 1, 17-Methyl-6,7-dehydro-3,14-hydroxy-4,5α-epoxy-6,7:5',4'(6,7: 3',4')pyrazolomorphin (tautomers)] the Ki (μ opioid receptor [1]; CHO cell membranes, human μ receptor, radioligand [3H]DAMGO, 1 hour at 25° C., SEM in brackets) was 3.75 nM, the “Selectivity: affinity for μ over δ” value (μ opioid receptor [1]; ratio of binding affinities, μ versus δ) was “about 7 times” and the “Selectivity: affinity for μ over κ” value (μ opioid receptor [1]; ratio of binding affinities, μ versus κ) was “about 7 times”. The Ki (δ opioid receptor [2]) was 19.1 nM, the Ki (κ opioid receptor [3]) was 12.3 nM and the Emax (μ opioid receptor [4]; 1 h, [35S]GTPγS, relative to full agonist DAMGO, read-out: % Stimulation μ-CHO membrane) was 80.3%. The EC50 (μ opioid receptor [4]; [8]) was 19.3 nM, the “Agonist/antagonist property at the μ receptor” value (μ opioid receptor [4]; result in words) was “agonist” and the Emax (δ opioid receptor [5]; 1 h, [35S]GTPγS, relative to full agonist Cl-DPDPE, read-out: % Stimulation δ-CHO membrane) was 75.2%. The EC50 (δ opioid receptor [5]; [8]) was 25 nM, the “Agonist/antagonist property at the δ receptor” value (δ opioid receptor [5]; result in words) was “agonist” and the Kb (κ opioid receptor [6]; [35S]GTPγS, antagonism, agonist U69,593, SEM in brackets, read-out: Ke (SEM) κ-CHO membrane) was 59.3 nM. For the same compound, the Schild slope (κ opioid receptor [6]; full Schild analysis, κ-CHO membrane) was -0.92±0.32, the Kb (κ opioid receptor [6]; full Schild analysis, κ-CHO membrane, read-out: pA2 value (converted)) was 51.3 nM and the “Agonist/antagonist property at the κ receptor” value (κ opioid receptor [6]; result in words) was “antagonist”. For the same compound, the “Stimulatory activity at the δ receptor of the T-cell” value (δ receptor of the T-cell) was “weak stimulatory activity”, the Analgesic activity [7] was “potent analgesic activity” and the “Duration of analgesic activity” value [7] was “long duration of activity”.
